Experiments:
Assay type in all cases: cell-based
[1] = test system: rat cerebellar granule neurons; assay: Electrophysiology: voltage-clamped whole-cell patch recordings of currents induced by laminin-1-derived peptides and fusion proteins; conditions: whole-cell patch clamp, neurons on laminin-1 substratum
From the text: Sixteen-day pregnant Sprague-Dawley female rats were obtained from Taconic Farms, and maintained at the animal facility of National Institute of Alcohol Abuse and Alcoholism (NTH), fed with NTH-31 diet, containing 20,000 IU/kg vitamin A after autoclaving. The rats were allowed to give birth, and cerebellar tissues of 3-day-old female pups were aseptically isolated as described previously (Matsuzawa et al., 1996a). A suspension of single cells was obtained by trypsinizing the cerebella as described elsewhere (Liesi and Wright, 1996), after which 10^5 cells were plated on 22 mm glass coverslip pre-coated with laminin-1. The cells were incubated in an atmosphere of 95% air/5% CO2 at +37° C. in RPMI 1640 culture medium supplemented with penicillin and streptomycin and 200 μM L-glutamine. After 24 hrs, the cells were used for electrophysiology.
Recordings were done at room temperature using a List EPC-7 patch-clamp amplifier in voltage-clamped whole-cell patch configuration as described previously (Liesi and Wright, 1996). Pipettes were pulled from borosilicate glass and lightly fire polished. Experiments were performed at room temperature. Whole-cell currents were recorded on a Gould 2400S strip chart recorder. Cell membrane potential was clamped at −40 mV unless otherwise noted. All bath solutions were applied through pinch-valves that controlled the flow from multiple reservoirs to a single 200 μm ID barrel of fused silica. Standard bath solution was RPMI 1640, buffered with 10 mM HEPES (pH 7.4). The standard pipette solution contained (in mM): CsMeSO4 100, CsCl 15, BAPTA 5, HEPES 10 (pH KOH-adjusted to 7.2). Tests for reversal potentials were conducted in low K^+ bath solution containing (in mM): NaCl 150, KCl 5, CaCl2 1, HEPES 10 (pH adjusted to 7.2 with NaOH) and a high K^+ bath solution, containing (in mM): NaCl 115, KCl 40, CaCl2 1, HEPES 10 (pH adjusted to 7.2 with NaOH). All bath solutions contained 300 nM TTX. […] Nernst reversal potentials were calculated according to Hille (1992). […]

[2] = test system: human embryonic neocortical neurons; assay: Survival of human embryonic neocortical neurons on injured glial cells of the human spinal cord; conditions: 1 μg/ml soluble peptide, 72 hrs, vs lesion control
From the text: The CNS tissues were first placed in cold saline. The spinal cord tissues were identified under a stereomicroscope, and carefully freed of meninges. To obtain monolayer cultures of human spinal cord glial cells, the cells were dissociated by mechanical trituration using a Pasteur-pipette, and placed in Petri dishes (Corning, N.Y., USA) containing 10% fetal calf serum (Hyclone, Logan, UH) in DMEM-F12 (Gibco, U.K.) supplemented with penicillin and streptomycin as described (Liesi et al. 2001).
Human embryonic spinal cord glial cells were cultured till confluency in 10% fetal bovine serum as described (Liesi et al., 2001). The confluent cultures were trypsinized and cells replated at 100 000 cells/22 mm glass coverslip, and grown till confluency. The confluent cultures were changed into normal adult human serum, and injured by using a 18 G gauge sterile needle. The KDI peptide was added at 1 μg/ml (3 μM) and at 10 μg/ml (30 μM) concentration and the P1543 peptide (p20) was added at a concentration of 1 μM, and 50-100 000 freshly isolated human embryonic neocortical neurons were added on the glial cells. The control cultures had neurons added either without the peptide or the lesion. The cells were cultured for 72 hrs in 5% CO2/95% air at +37° C., and fixed for quantitation of neurons and measurement of their neuritic lengths. The neurons on glial monolayers were visualized by immunostaining using mouse monoclonal antibodies against a neuron-specific tubulin isoform (TUJ1). The results were evaluated by counting neurons in six random fields on 3 different coverslip per experiment. In this way, more than 300 neurons were counted per experiment. Statistical analysis of the results was performed using one-way analysis of Varians (ANOVA) and Student-Newman-Keuls multiple comparisons test on the Instat (v2.03) program (GraphPad, San Diego, Calif.).

[3] = test system: human CNS neurons; assay: Attachment and neurite outgrowth of human embryonic CNS neurons on synthetic peptides coupled to glass; conditions: 1 μg/ml, peptide coupled to glass, 24 hrs
Method: The cells were dissociated by trituration in a sterile culture medium (RPMI 1640) containing penicillin (100 U/ml), streptomycin (100 μg/ml) and 200 μM L-glutamine. The dissociated cells were plated on glass coverslips pre-coated (Liesi et al., 1989) with mouse laminin-1 (Boehringer-Mannheim, Germany) or with the peptides KDI-gc and RDIAEIIKDI-gc (SEQ ID NO: 1), as described elsewhere (Matsuzawa et al., 1996b). The peptides were from the Multiple Peptide Systems (La Jolla, Calif.). The cultures were maintained for 24 hrs, fixed in 2% paraformaldehyde, and processed for immunocytochemistry.
Immunocytochemistry for neuron specific tubulin isoform TUJ1 was performed as described elsewhere (Liesi et al., 2001). In short, the cells were permeabilized in methanol for 5 min at −20° C., washed in PBS and incubated with monoclonal TUJ1-antibodies for 1 hr at room temperature. The antibody was of high specificity and was used at 1:500 dilution. After immunocytochemistry, the coverslips were mounted in PBS:glycerol (1:1) and viewed with Olympus Provis fluorescence microscope with appropriate filter combinations.

**Q.** How did the “induction of currents in cerebellar granule neurons” value [1] turn out when “RDIAEIIKDI [P1543, C-terminal neurite outgrowth decapeptide of the γ1-chain of laminin-1]” was run?
**A.** induced electrical currents

**Q.** And the “attachment and neurite outgrowth of neocortical neurons on lesioned spinal cord glial cells” value [2]?
**A.** significant (p<0.001) improvement

**Q.** What about the “attachment and neurite outgrowth of human CNS neurons” value [3] of the same substance?
**A.** supported attachment and neurite outgrowth

**Q.** Which “induction of currents in cerebellar granule neurons” value [1] does the source give for “EIIKDI [6-amino acid peptide truncated from P1543]” here?
**A.** induced currents
